According to patent US20220119399A1, “COMPOUNDS AND COMPOSITIONS THAT CAUSE MYCN AND/OR CMYC DEGRADATION AND METHODS OF USE THEREOF” (THE TRUSTEES OF COLUMBIA UNIVERSITY IN THE CITY OF NEW YORK, priority 2018, published 2022):
Entries after “also recorded” stand apart in the source; their conditions may differ.

Key:
SK-N-Be2 cells = type: in vitro ADME, human; details: human, 20 μM
Experimental: In brief, SK-N-Be2 cells were seeded at 400 k cells/well in 6 w plates and incubated overnight. The following day, compounds were added to wells at indicated concentrations, with DMSO-only control added to non-treated wells. Following treatment for the indicated time periods, cells were trypsinized, rinsed twice with cold PBS to remove media, pelleted by centrifugation, and frozen at −20° C. To extract compounds, frozen pellets were resuspended in 150 μL of acetonitrile, sonicated for 2′, and centrifuged at 1400×g for 75′ at 4° C. Supernatant was collected and analyzed by LC-MS using a system comprised of a Thermo Scientific Dionex Ultimate 3000 and a Bruker amaZon SL equipped with an electrospray ionization source controlled by a Bruker Hystar 3.2. Compounds were separated by injecting 20 μL of supernatant onto an Agilent Eclipse Plus C18 column (2.1×50 mm, […]) maintained at 20° C., with the flow rate set at 400 μL/min. Initial flow conditions were 60% solvent A (MilliQ H2O, 0.1% acetic acid), and 40% solvent B (HPLC-grade MeOH, 0.1% acetic acid). Solvent B was raised to 60% over 0.25 min and to 70% by 6.75 min. Solvent B was raised to 95% by 7 min and lowered back to 40% by 8 minutes; total run time was 9 min (Bos et al. 2019).

[1] = test system: PARP and caspase3 cleavage; experiment: Western blot of apoptosis hallmarks (cleaved PARP, cleaved caspase 3); type: cell-based, human; details: SK-N-Be2 cells, 48 hrs
From the text: (§1) Membranes were blocked using Odyssey Blocking Buffer (LI-COR) for 1 hr at room temperature. […] Primary antibodies used in these studies include: MycN (CST; 1:500 dilution), Actin (SCBT; 1:2000 dil.), cMYC (CST; 1:500 dil.), pAKT (S473; CST; 1:500 dil.), AKT (CST; 1:2000), pP70 (T389; CST; 1:1000) P70 (CST; 1:1000).

[2] = test system: cancer cell lines and non-transformed cells; details: Darji et al. 2013; Son et al. 2007; cited from earlier work
MYC targets gene set = experiment: GSEA of Cancer Hallmarks gene sets from PLATE-Seq profiles; type: cell-based, human; details: SK-N-Be2 cells, 3.3 μM and 10 μM, 6 h and 24 h
From the text: We next performed gene set analysis using PLATE-Seq expression profiling by binning transcripts according to the Cancer Hallmarks gene sets found at the molecular signatures database. Curated by the Broad Institute, these fifty hallmark pathway sets represent well defined cancer processes or states associated with cancer malignancies. […] Given that isopomiferin disrupted the MycN^AMP regulatory module, it was expected that this target would be suppressed by isopomiferin. We sought to understand how the compound is affecting cells by assessing whether any other pathways are affected by the compound. […] E2F […] regulators act in a feedback loop with MycN and also regulate cell cycle progression (Strieder and Lutz 2003; Li et al. 2014), so this is an interesting finding that will be further investigated. MycN enables cancer cells to evade the immune system by suppressing antigens that can act as immune attractants necessary for detection and destruction of cancer cells (Brandetti et al. 2017; Topper et al. 2017). It is possible that enrichment of the “Inflammatory Response” gene set is a result of desuppression of these targets as a result of MycN inhibition.
We sought to investigate biological pathways affected by isopomiferin by performing pathway enrichment analysis on a set of 50 hallmarks of cancer. […]

pS6K = experiment: S6K phosphorylation western blot in SK-N-Be2 cells; type: cell-based, human; details: 10 μM and 20 μM, 24 hours
From the text: as §1
We then tested whether mTORC2 complex was disrupted by isopomiferin treatment. […] to enable translation. We tested whether phosphorylation of S6K was inhibited by isopomiferin by treating SK-N-Be2 cells to 10 μM and 20 μM isopomiferin for 24 hours and blotting for pS6K, using total S6K protein as a loading control. […] We then tested whether this was consistent across cell lines by performing a similar experiment in an NSCLC cell line, A549.

pAKT (Ser473) = pAKT (Ser473) western blot in SK-N-Be2 cells; type: cell-based, human; details: growth factor induced
From the text: as §1
We first tested whether isopomiferin disrupted […] signaling in NBL by treating SK-N-Be2 cells to isopomiferin and blotting for pAKT abundance. Treatment with […] (EGF) induces pAKT1 through mTOR signaling. We tested whether isopomiferin had the ability to disrupt mTOR signaling by pre-treating cells with isopomiferin for 2 hrs, following which cells were treated with 10 ng/ml EGF for 30 minutes to induce pAKT1. […] Total AKT abundance was used as a loading control to confirm that isopomiferin was simply not suppressing expression of AKT abundance.

[3] = Tolerability in tumor-bearing mice; type: in vivo; details: 10 mg/kg i.p., 24 hrs
Experimental: 6-week old male mice were purchased from Charles River Laboratories, and housed in Columbia University's animal control barrier facilities, and mice were allowed one week to acclimate to their new environment. To establish tumor xenografts, 10×10^6 SK-N-Be2 cells were suspended in a 200 μL volume of 50% matrigel slurry. […] Mice were kept on standard chow diet (Purina), and their cage dressing changed twice weekly. Animals were investigated regularly for any sign of discomfort. […] To create the stock solution of isopomiferin, 5 mg of isopomiferin (MicroSource) was dissolved into 50 μL dimethyl sulfoxide (DMSO). To this 450 μL of cyclodextrin solution was added dropwise. Cyclodextrin is dissolved as a 50% w/v solution in 40% EtOH. It is important to add the cyclodextrin slowly and with continual mixing to solubilize the compound. This solution was added to one volume of PBS and filter-sterilized. This solution was then diluted to achieve appropriate concentrations for a 200 μL volume administration at 10 mg/kg to each mouse. The solution was administered to animals via intraperitoneal injection (i.p.). […]
The ability of the compounds to inhibit growth of MYCNA tumor xenografts was evaluated by treating tumor bearing mice with daily i.p. injections of 20 mg/kg isopomiferin or pomiferin. […] MYCN abundance was evaluated mid-experiment, following 14 days of treatment.

| Structure (SMILES) | amount of compound detected in cell sample (SK-N-Be2 cells) | induction of apoptosis (PARP and caspase3 cleavage) [1] | potency in transformed cells relative to non-transformed cells [2] | Cancer Hallmarks gene set enrichment (MYC Targets, E2F Targets, G2M Checkpoint) (MYC targets gene set) | phosphorylation of S6K (P70^S6K) (pS6K) | phosphorylation of S6K (P70^S6K) (pS6K; listed as Isopomiferin) | pAKT accumulation / AKT (Ser473) phosphoactivation (pAKT (Ser473)) | pAKT accumulation / AKT (Ser473) phosphoactivation (pAKT (Ser473); listed as Isopomiferin) | toxicity observed in animals [3] |
| --- | --- | --- | --- | --- | --- | --- | --- | --- | --- |
| CC(C)=CCc1c2c(c3occ(-c4ccc(O)c(O)c4)c(=O)c3c1O)C=CC(C)(C)O2 [pomiferin] | ~300 ng | more potent inducer of apoptosis than CX-4945 | > 10 fold |  |  |  |  |  |  |
| CC1(C)C=Cc2c(c3c(c4c(=O)c(-c5ccc(O)c(O)c5)coc24)OC(C)(C)CC3)O1 [isopomiferin] |  |  |  | suppressed the MYC targets gene set; also recorded: suppressed by isopomiferin treatment in a time- and dose-dependent manner | completely inhibited phosphorylation of S6K protein | inhibited phosphorylation of P70^S6K | blocked pAKT accumulation in presence of EGF treatment | inhibited phosphorylation of P70^S6K, as well as the IGF1-induced phosphoactivation of AKT (Ser473) | No toxicity issues were observed |
